# Results taken from publication PMC8808171, “Nonselective TRPC channel inhibition and suppression of aminoglycoside-induced premature termination codon readthrough by the small molecule AC1903” (The Journal of Biological Chemistry, 2022).
# Legend:
# TRPC5–C1 = molecular target: T1, TRPC5–C1 (Homo sapiens, UniProt P48995+Q9UL62); assay: [Ca2+]i recordings (Fura-2), concatemeric TRPC5–C1 in HEK T-REx cells; assay type: cell-based; conditions: activator EA (30 nM)
# T1 construct: expressed in transfected cells; host or cells: HEK T-REx (tetracycline-induced)
# T1 sequence (Q9UL62+P48995 fused): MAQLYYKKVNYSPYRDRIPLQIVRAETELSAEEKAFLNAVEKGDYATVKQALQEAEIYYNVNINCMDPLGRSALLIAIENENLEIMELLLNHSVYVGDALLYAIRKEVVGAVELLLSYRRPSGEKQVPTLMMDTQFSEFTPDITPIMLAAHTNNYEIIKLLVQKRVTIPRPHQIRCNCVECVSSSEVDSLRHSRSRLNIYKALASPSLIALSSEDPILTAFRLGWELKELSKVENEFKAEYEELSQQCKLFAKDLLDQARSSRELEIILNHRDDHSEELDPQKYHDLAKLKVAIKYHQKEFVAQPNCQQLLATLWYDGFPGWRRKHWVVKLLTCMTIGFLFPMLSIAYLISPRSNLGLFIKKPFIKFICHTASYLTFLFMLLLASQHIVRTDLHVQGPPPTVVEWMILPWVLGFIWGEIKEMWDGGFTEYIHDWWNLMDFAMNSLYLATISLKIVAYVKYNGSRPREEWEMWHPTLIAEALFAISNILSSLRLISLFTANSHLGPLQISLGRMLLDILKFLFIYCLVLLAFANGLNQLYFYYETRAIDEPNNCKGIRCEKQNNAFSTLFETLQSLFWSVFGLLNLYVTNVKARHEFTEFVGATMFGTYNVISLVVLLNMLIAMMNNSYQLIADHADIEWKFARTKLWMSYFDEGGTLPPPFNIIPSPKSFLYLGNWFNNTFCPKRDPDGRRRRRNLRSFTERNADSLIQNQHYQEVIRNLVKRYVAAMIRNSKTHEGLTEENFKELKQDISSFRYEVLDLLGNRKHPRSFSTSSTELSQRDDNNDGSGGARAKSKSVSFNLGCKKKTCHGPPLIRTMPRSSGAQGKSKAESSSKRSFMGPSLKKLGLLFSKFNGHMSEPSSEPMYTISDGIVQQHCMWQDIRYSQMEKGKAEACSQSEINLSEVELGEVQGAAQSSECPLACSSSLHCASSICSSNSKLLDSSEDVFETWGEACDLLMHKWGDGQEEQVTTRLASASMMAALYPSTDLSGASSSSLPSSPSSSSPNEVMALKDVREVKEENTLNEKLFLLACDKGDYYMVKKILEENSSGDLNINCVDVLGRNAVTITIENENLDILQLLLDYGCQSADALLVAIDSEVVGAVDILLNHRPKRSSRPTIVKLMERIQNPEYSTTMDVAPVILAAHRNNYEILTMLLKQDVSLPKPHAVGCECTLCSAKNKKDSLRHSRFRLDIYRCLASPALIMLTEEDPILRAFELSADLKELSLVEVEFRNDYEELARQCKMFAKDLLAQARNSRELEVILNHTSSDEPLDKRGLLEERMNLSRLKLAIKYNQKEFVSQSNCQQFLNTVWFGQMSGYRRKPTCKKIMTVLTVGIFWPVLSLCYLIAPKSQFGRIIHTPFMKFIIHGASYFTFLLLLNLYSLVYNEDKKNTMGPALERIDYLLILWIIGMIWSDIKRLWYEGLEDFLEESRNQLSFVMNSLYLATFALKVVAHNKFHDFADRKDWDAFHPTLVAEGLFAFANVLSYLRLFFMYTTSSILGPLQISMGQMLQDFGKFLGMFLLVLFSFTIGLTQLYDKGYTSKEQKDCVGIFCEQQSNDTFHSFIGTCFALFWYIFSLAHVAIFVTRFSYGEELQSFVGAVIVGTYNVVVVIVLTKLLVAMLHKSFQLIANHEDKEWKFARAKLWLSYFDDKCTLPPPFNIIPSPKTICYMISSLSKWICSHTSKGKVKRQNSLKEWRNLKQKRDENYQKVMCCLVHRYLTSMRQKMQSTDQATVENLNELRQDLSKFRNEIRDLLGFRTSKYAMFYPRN
# Experimental: Based on the findings described above, we wondered whether AC1903—which is typically used as a TRPC5 inhibitor at concentrations of 30–100 μM in cellular assays ([29], [56])—might have limited selectivity for TRPC5 channels and whether its effect on intracellular G418 levels and PTC readthrough might be the consequence of inhibition of other or multiple targets. All well-characterized TRPC channel inhibitors reported to date modulate multiple TRP(C) channels ([34], [35], [36]). […] Because limited data for the selectivity of AC1903 are available in the public domain, we decided to profile AC1903 against a selection of calcium-permeable cation channels by intracellular calcium ([Ca^2+]i) recordings using well-characterized cell lines and TRP channel activators ([46], [57], [58]), and the Ca^2+ indicator Fura-2. In these assays, cells (HEK 293, HEK T-REx, or CHO) overexpressing the relevant ion channel protein and loaded with Fura-2 AM (a cell-permeable precursor of Fura-2) were preincubated with various concentrations of AC1903 or vehicle (DMSO) for 30 min. Then, changes in ratiometric fluorescence (from background) were recorded upon addition of the respective ion channel activator.
# HEK T-REx cells expressing tetracycline-inducible TRPC4, TRPC5, TRPC5–C1,TRPC4–C1, and hPiezo1 have been described previously ([46], [57], [59], [78]). […]
# WT HEK 293 cells = assay: Carbachol-mediated [Ca2+]i response in WT HEK 293 cells; assay type: cell-based; conditions: carbachol (100 μM), n/N = 1/6
# Experimental: To test the effect of AC1903 on TRPC4 channels, we initially attempted to use carbachol to activate TRPC4:C4 channels, in line with patch-clamp experiments reported by Zhou et al. ([29]). […] Therefore, we used the selective TRPC1/4/5 activator EA and the physiological TRPC4/5 activator S1P instead.
# [Ca^2+]i recordings were carried out using the ratiometric Ca^2+ dye Fura-2. 24 h prior to experiments, cells were plated either onto black, clear bottom poly-D-lysine-coated 96-well plates (HEK cells) or clear 96-well plates (A498 cells, CHO cells) at 50,000 cells per well (HEK cells) or 20,000 cells per well (A498 cells, CHO cells). For tetracycline-inducible HEK T-REx cells, protein expression was induced with tetracycline (TRPC channels: 1 μg ml^−1; hPiezo1: 100 ng ml^−1) at this point. To load cells with the Fura-2 dye, media was removed and cells were incubated with standard bath solution (SBS) containing 2 μM Fura-2 acetoxymethyl ester (Fura-2 AM; Thermo Fisher Scientific) and 0.01% pluronic acid for 1 h at 37 °C. SBS contained (in mM): NaCl 130, KCl 5, glucose 8, HEPES 10, MgCl2 1.2 and CaCl2 1.5. After this incubation, cells were washed twice with fresh SBS. […]
# Inhibition of G418-induced premature stop codon readthrough
# Figure S7. […] Responses were calculated at 70-80 s compared to [Ca2+]i at baseline (0-55 s). […]
smiles,measurement,setting,value
c1ccc(Cn2c(NCc3ccco3)nc3ccccc32)cc1 [AC1903],IC50,TRPC5–C1; HEK T-REx,4.7 µM
same,Hill slope,TRPC5–C1,-1.3
same,IC50,WT HEK 293 cells,20 µM
